# Laboratory results: patent US20240148820A1 (priority 2021, published 2024)
# “Also recorded” adds a separate entry of the source. Where a SMILES comes first, the peptide text is derived from it. Where no end group is shown, it is not given here.
# Assays:
# A(H1N1) virus [1] = assay type: cell-based, A/Hong Kong/415742M/2009(H1N1)
# A(H1N1) virus [2] = test system: A(H1N1) virus
# [3] = target: Spike of SARS-CoV-2 / ACE2-human (Severe acute respiratory syndrome coronavirus 2, UniProt P0DTC2); assay type: cell-based, SARS-CoV-2 / human
# SARS-CoV-2 [4] = assay type: cell-based, human
# SARS-CoV-2 [5] = assay type: cell-based
# [6] = test system: coronavirus or influenza virus; conditions: oral inoculation or intraperitoneal injection (refs 29, 30, 39, 41); cited from earlier work
# SARS-CoV = test system: SARS-CoV; set-up: species or system BALB/c mice; conditions: in vivo
# SARS-CoV-2 [7] = conditions: in vivo
# SARS-CoV-2 [8] = conditions: cited from earlier work
# A(H1N1) virus [9] = test system: A(H1N1) virus; set-up: species or system BALB/c mice; conditions: in vivo
# S protein of SARS-CoV-2 = S protein of SARS-CoV-2 (Severe acute respiratory syndrome coronavirus 2, UniProt P0DTC2); assay type: binding
# SARS-CoV-2 [10] = test system: SARS-CoV-2
# MDCK cells = assay: Cytotoxicity assay (MTT)
# turkey red blood cells = conditions: normalized to Triton X-100
# A(H1N1) virus [11] = assay type: cell-based; conditions: virus pretreated 45 min, attached to MDCK cells 1 h
molecule,measurement,setting,value
CC[C@H](C)[C@H](NC(=O)[C@H](C)NC(=O)CNC(=O)[C@H](CC(N)=O)NC(=O)[C@H](CO)NC(=O)[C@H](Cc1ccccc1)NC(=O)[C@H](CCCNC(=N)N)NC(=O)[C@H](Cc1c[nH]cn1)NC(=O)[C@H](CS)NC(=O)[C@H](CCC(N)=O)NC(=O)[C@H](CO)NC(=O)[C@H](CC(=O)O)NC(=O)[C@H](Cc1c[nH]c2ccccc12)NC(=O)[C@H](CCCNC(=N)N)NC(=O)CNC(=O)[C@H](CC(N)=O)NC(=O)[C@@H](NC(=O)[C@@H](N)Cc1ccccc1)[C@@H](C)CC)C(=O)N[C@@H](C)C(=O)N[C@@H](CS)C(=O)N[C@@H](C)C(=O)O [U4] (H-FINGRWDSQCHRFSNGAIACA-OH; N-terminus and C-terminus assumed),antiviral activity against A(H1N1) virus compared with Urumin,A(H1N1) virus [1],more potent antiviral activity than that of Urumin
same,IC50 against A(H1N1) virus,A(H1N1) virus [2],6.6 µg/mL
CO/C1=C\C(C)=C\[C@@H](C)[C@@H](O)[C@@H](C)C/C(C)=C/C=C/[C@H](OC)[C@@H]([C@@H](C)[C@@H](O)[C@H](C)[C@@]2(O)C[C@@H](O)[C@H](C)[C@@H](C(C)C)O2)OC1=O [bafilomycin A1],spike-ACE2 mediated cell fusion,[3],fusion inhibition
CCN(CC)CCCC(C)Nc1ccnc2cc(Cl)ccc12 (stereo not drawn) [chloroquine],SARS-CoV-2 replication in ex vivo human lung tissues,SARS-CoV-2 [4],significantly inhibited SARS-CoV-2 replication
same,antiviral activity when cells treated before or after infection,SARS-CoV-2 [5],significantly less antiviral activity
same,viral replication when treated during viral infection,SARS-CoV-2 [5],effectively inhibit viral replication; also recorded: more effectively inhibited viral replication
same,coronavirus or influenza virus replication in vivo after systemic administration,[6],could not inhibit coronavirus or influenza virus replication in vivo
same,"SARS-CoV replication in mouse lungs, atomization inhalation",SARS-CoV,could inhibit; also recorded: inhibited
same,1-day prophylactic activity against SARS-CoV replication,SARS-CoV; mouse,could not provide 1-day prophylactic activity
same,"inhibition of SARS-CoV replication, one dose before viral inoculation",SARS-CoV; mouse,3-5 fold
same,SARS-CoV-2 replication in hamster lungs (in words),SARS-CoV-2 [7],inhibited SARS-CoV-2 replication
same,inhibition of SARS-CoV-2 replication in hamster lungs,SARS-CoV-2 [7],2 fold
same,SARS-CoV-2 replication in Calu-3 cells (reference 24),SARS-CoV-2 [8],cannot inhibit SARS-CoV-2 replication
same,A(H1N1) virus replication in mouse lungs (in words),A(H1N1) virus [9],inhibited A(H1N1) virus replication
same,"A(H1N1) virus replication in mouse lungs, atomization inhalation",A(H1N1) virus [9],could inhibit; also recorded: inhibited
same,1-day prophylactic activity against A(H1N1) virus replication,A(H1N1) virus [9]; mouse,could not provide 1-day prophylactic activity
same,inhibition of A(H1N1) virus replication in mice,A(H1N1) virus [9]; mouse,3.5 fold
same,"inhibition of A(H1N1) virus replication, one dose before viral inoculation",A(H1N1) virus [9]; mouse,3-5 fold
IPLRGAFINGRWDSQCHRFS [U5],spike-ACE2 mediated cell fusion,[3],did not inhibit spike-ACE2 mediated fusion
same,antiviral activity against A(H1N1) virus compared with Urumin,A(H1N1) virus [1],more potent antiviral activity than that of Urumin
same,binding to S protein of SARS-CoV-2,S protein of SARS-CoV-2,bound to S protein
same,effect of U5 on P16 binding to S protein,S protein of SARS-CoV-2,reduced P16 binding to S protein; also recorded: blocked P16 binding to S protein
same,IC50 against A(H1N1) virus,A(H1N1) virus [2],12.9 µg/mL
"RGAHIKGRWKSRCHRF [P16, RGAHIKGRWKSRCHRF]",IC50 against A(H3N2),A(H3N2),1.6 µg/mL
same,IC50 against FluB,FluB,7.1 µg/mL
same,IC50 for SARS-CoV-2 B.1.1.63,SARS-CoV-2 [10],3.0 µg/mL
same,IC50 for SARS-CoV-2 B.1.617.2,SARS-CoV-2 [10],3.9 µg/mL
same,IC50 for SARS-CoV-2 HKU001a,SARS-CoV-2 [10],2.9 µg/mL
same,cytotoxicity on MDCK cells,MDCK cells; MDCK cells treated by 1 mg ml^−1 of P16,no significant cytotoxicity
same,TC50,"MDCK cells; MDCK cells, MTT, 24 h",> 1000 µg/mL
same,hemolysis of turkey red blood cells,turkey red blood cells,no significant hemolysis
same,IC50 against A(H1N1) virus,A(H1N1) virus [2],3.9 µg/mL
Triton X-100,viral attachment to cells (RNA copies of attached virus),A(H1N1) virus [11],significantly reduced
